From article PMC8020153 (Journal of Advanced Research, 2020) come the findings set out here.

In this assay the target is pyruvate kinase isozyme type M2 (PKM2) (Homo sapiens, UniProt P14618). The assay is described as follows: SPR with immobilized recombinant human PKM2. It is filed as binding.
pyruvate kinase isozyme type M2 (PKM2), sequence (P14618 2-531): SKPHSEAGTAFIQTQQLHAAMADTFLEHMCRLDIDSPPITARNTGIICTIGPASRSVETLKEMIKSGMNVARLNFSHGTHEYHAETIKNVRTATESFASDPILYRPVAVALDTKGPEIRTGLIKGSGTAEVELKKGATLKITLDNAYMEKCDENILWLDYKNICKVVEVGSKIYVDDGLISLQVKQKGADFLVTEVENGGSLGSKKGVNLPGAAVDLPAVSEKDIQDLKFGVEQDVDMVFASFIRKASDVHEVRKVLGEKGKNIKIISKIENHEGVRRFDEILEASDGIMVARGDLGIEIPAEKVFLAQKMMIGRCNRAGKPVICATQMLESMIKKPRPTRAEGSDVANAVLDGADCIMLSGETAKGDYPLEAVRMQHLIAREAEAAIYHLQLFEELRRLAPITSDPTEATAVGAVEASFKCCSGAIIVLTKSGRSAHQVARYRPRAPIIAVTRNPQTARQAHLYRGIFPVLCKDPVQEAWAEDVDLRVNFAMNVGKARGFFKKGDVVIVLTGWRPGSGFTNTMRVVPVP

By Kd is commonly meant the equilibrium constant for the complex coming apart. Consider `C1=Cc2ccccc2Nc2ccccc21` [ISB, Iminostilbene], for which the Kd was 18.6 µM.
